The values that follow come from BindingDB's records for doi:10.1021/jm00375a008 (1984).

This experiment has as its target Progesterone receptor (Gallus gallus) (UniProt P07812). Description: Equilibrium dissociation constant for chick oviduct progesterone receptor.

The structures appear in SMILES notation.

Progesterone receptor (Gallus gallus), sequence (P07812 whole entry, looked up): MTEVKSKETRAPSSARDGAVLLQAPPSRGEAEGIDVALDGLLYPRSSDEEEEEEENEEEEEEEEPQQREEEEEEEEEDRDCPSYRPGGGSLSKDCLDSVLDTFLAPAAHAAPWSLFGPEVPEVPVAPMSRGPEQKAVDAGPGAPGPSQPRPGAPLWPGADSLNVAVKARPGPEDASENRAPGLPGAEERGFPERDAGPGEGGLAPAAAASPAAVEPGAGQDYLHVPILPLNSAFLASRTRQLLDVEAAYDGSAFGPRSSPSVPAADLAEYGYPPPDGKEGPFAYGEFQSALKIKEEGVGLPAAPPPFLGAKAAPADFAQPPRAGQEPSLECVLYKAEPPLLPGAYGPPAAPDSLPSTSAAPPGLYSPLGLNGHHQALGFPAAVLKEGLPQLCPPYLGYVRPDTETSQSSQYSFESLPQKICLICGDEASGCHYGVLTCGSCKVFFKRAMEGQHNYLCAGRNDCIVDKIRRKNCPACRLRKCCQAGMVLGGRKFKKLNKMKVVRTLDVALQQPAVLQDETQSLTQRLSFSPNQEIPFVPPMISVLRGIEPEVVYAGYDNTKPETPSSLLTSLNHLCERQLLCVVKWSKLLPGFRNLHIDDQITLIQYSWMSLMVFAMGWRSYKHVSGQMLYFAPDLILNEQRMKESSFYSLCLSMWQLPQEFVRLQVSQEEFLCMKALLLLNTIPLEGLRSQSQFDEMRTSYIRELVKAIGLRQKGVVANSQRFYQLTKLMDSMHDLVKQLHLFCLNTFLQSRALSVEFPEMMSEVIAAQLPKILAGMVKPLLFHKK

As to `C#C[C@@H](O)C12CCCC1C1CCC3=CC(=O)CC[C@@H]3C1CC2` (stereo partly specified), the affinity, expressed as Kd, was 0.16 µM.
